How the values were obtained:
Type in all cases: cell-based
TNF-α = TNF-α release from rat mast cells (ELISA); conditions: Mast cell, RBL rat mast cells, control = DMSO; for activity at 1 µM: 1 μM compound; for activity at 10 µM: 10 μM compound
Procedure: (§1) [Ca^2+]ER in RBL (ATCC) rat mast cells were depleted by Tg in the presence of a test compound. Then […] DMEM-2% FBS (containing 5 mM Ca^2+) was supplemented back in the presence of the corresponding concentration of MCS-01.
(§2) Thirty minutes after replenishing Ca^2+ the culture supernatant was collected for MC degranulation and cytokine release. Degranulation was measured as percent secreted β-hexosaminidase (β-Hex) according to the protocol of the assay kit (Sigma-Aldrich, MO, USA). At this time point TNF-α was also measured using ELISA kit (R&D Systems, MN, USA).
The inhibitory activity of the tested compound in the TNF-α assay was presented as % of control (DMSO).

RBL rat mast cells = experiment: Degranulation of rat mast cells (secreted β-hexosaminidase); conditions: Mast cell, 0.5 h, Tg depletion, 30 minutes after replenishing Ca2+
Procedure: as §1, §2

[1] = tested on: Rat mast cells (RBL-2H3 cells); experiment: Calcium influx assay (Fluo-4NW, thapsigargin store depletion, Ca2+ re-addition); conditions: control = DMSO, read-out: Fluo-4NW fluorescence (Ca2+ influx), % of control; for activity at 1 µM: 1 μM compound; for activity at 10 µM: 10 μM compound
Procedure: Rat mast cells (RBL-2H3 cells) (ATCC) were seeded in 96-well plate at 4×10^4 cells per well in DMEM-supplemented with 2% FBS and allowed to adhere overnight. Culture medium was then replaced with 50 μl of Ca^2+-free Tyrode buffer to load Ca^2+-probe Fluo-4NW (Molecular Probe, Thermo Fisher, MA, USA) per manufacturer instruction. A testing compound at indicated concentrations was supplied during the probe loading from the beginning. Cells were incubated in the presence or absence of a testing compound for 60 minutes in the Ca^2+-free medium at 37° C. During the last 5 minutes of incubation, cells were treated with 1 μM thapsigargin (Tg, Sigma Aldrich) to deplete [Ca^2+]ER, 20 mM CaCl2 in normal saline solution was supplemented back to the [Ca^2+]ER-depleted cells to have 2 mM as final concentration. Culture medium was removed 1 minute after Ca^2+ reloading, and changes in Fluo-4NW fluorescence (RFU) were recorded with the multi-mode plate reader (FilterMax F5, Molecular Devices/Thermo Fisher Scientific, MA, USA) at an excitation wavelength of 485 nm and an emission wavelength of 535 nm. The inhibitory activity of the tested compound was presented as % of control (DMSO).

IL-2 = experiment: Interleukine-2 (IL-2) assay (ELISA, PMA and TG stimulated); conditions: Human Jurkat T cells; PMA (10 nM) and TG (100 nM); 8 hours; read-out: IC50 (IL-2 levels)
Procedure: Human Jurkat T cells (ATCC) were plated in Dubelcco's Modified Eagle Medium (DMEM) with 1% FBS in a 96 well plate at a density of 1×10^6 cells/well. Cells were treated with a testing compound at different concentrations and stimulated by PMA (10 nM) and TG (100 nM). The treated cells were incubated at 8 hours. The supernatants were collected and assayed for IL-2 levels by ELISA according to the manufacturer's protocols. The IC50 of Example 2 was determined to be 3 μM.

NFAT = NFAT activation assay (luciferase reporter, PMA and ionomycin); conditions: Homo sapiens; 10 μM compound; Jurkat cells; 15 nM PMA and 0.5 μM ionomycin; 18 hours; read-out: Activity 10 μM (% inhibition of NFAT luciferase luminescence)
Procedure: Jurkat cells (BPS Bioscience catalog No. 60621) were seeded at 40,000 cells per well into white clear-bottom 96-well microplate in 80 μl of growth medium without Geneticin. 10 μl of testing compounds (final 10 μM) were added to each well and preincubated with cells for half an hour. Then 10 μl of PMA and ionomycin mixture were added to each well to make the final concentration of 15 nM PMA and 0.5 μM ionomycin. Cells were incubated at 37° C. and 5% CO2 incubator for 18 hours. After treatment, cells were lysed and the luciferase assay was performed using ONE-Step luciferase assay system by adding 100 μl of One-Step Luciferase reagent (BPS Bioscience catalog No. 60690) per well followed by rocking at room temperature for about 30 minutes. Luminescence was measured using a luminometer (BioTek Synergym™ 2 microplate reader). The percent luminescence in the presence of each compound was calculated according to the following equation: % Luminescence=(L−Lb)/(Lt−Lb), where L=the luminescence intensity in the presence of the compound, Lb=the luminescence intensity in the absence of cells, and Lt=the luminescence intensity in the absence of the compound. The percent inhibition was calculated by: % inhibition=100−(% Luminescence).

Row | Compound | activity at 1 µM (TNF-α) [%] | activity at 10 µM (TNF-α) [%] | IC50 (RBL rat mast cells) [nM] | activity at 1 µM [1] [%] | activity at 10 µM [1] [%] | IC50 (IL-2) [nM] | inhibition at 10 µM (NFAT) [%]
1 | O=C(Nc1c(F)cccc1Cl)c1cn(CC2CC2)c2ccccc12 [Example 2, N-(2-chloro-6-fluorophenyl)-1-(cyclopropylmethyl)-1H-indole-3-carboxamide] | 57 | 30 | 1200 | 46 | 14 | 3000 | –
2 | O=C(Nc1ccncc1F)c1cn(CC2CC2)c2ccccc12 [Example 13, 1-(cyclopropylmethyl)-N-(3-fluoropyridin-4-yl)-11/-indole-3-carboxamide] | 67 | 53 | – | 63 | 31 | – | > 75
3 | O=C(Nc1ccncc1F)c1cn(CC2CCC2)c2ccccc12 [Example 8, 1-(cyclobutylmethyl)-N-(3-fluoropyridin-4-yl)-1H-indole-3-carboxamide] | 79 | 51 | – | 50 | 25 | – | > 75
4 | O=C(Nc1c(F)cccc1F)c1cn(CC2CC2)c2ccccc12 [Example 1, 1-(cyclopropylmethyl)-N-(2,6-difluorophenyl)-1H-indole-3-carboxamide] | – | – | – | 75 | 42 | – | 51 to 75
5 | Cc1cnccc1NC(=O)c1cn(CC2CC2)c2ccccc12 [Example 4, 1-(cyclopropylmethyl)-N-(3-methylpyridin-4-yl)-1H-indole-3-carboxamide] | – | – | – | 61 | 44 | – | 51 to 75
